US8575136B2, “2-methylene-1α-hydroxy-18,19,21-trinorvitamin D3 analogs and uses thereof” (Wisconsin Alumni Research Foundation, priority 2006, dated 2013)
“Also recorded” adds a separate entry of the source.

Assays:
[1] = Bone calcium mobilization (serum calcium); parameters: species or system Sprague-Dawley rats; details: in vivo, rats, ip doses; FIG. 2
Description: Male, weanling Sprague-Dawley rats were placed on Diet 11 (0.47% Ca) diet+AEK for one week followed by Diet 11 (0.02% Ca)+AEK for 3 weeks. The rats were then switched to a diet containing 0.47% Ca for one week followed by two weeks on a diet containing 0.02% Ca. Dose administration began during the last week on 0.02% calcium diet. Four consecutive ip doses were given approximately 24 hours apart. Twenty-four hours after the last dose, blood was collected from the severed neck and the concentration of serum calcium determined as a measure of bone calcium mobilization. The first 10 cm of the intestine was also collected for intestinal calcium transport analysis using the everted gut sac method. The everted gut sac assay was carried out as previously described by Martin and Deluca, Am. J. Physiol. 216, 1351 (1969); (DeLuca et al., U.S. Pat. No. 4,188,345), which are incorporated by reference as if fully set forth herein. […]
Twenty-four hours after the final dose, approximately 1 ml of blood is allowed to coagulate at room temperature and then centrifuged at 3000×g for 15 minutes. […] The level of calcium is determined by diluting the serum into 0.1% lanthum chloride and measuring the absorbance on an atomic absorption spectrophotometer (Perkin Elmer Model 3110, Shelton, Conn.).

[2] = target: T1, full-length recombinant rat vitamin D receptor (Rattus norvegicus, UniProt P13053); assay: Vitamin D receptor binding, competition with [3H]-1,25-(OH)2-D3; details: compared to 1α,25-dihydroxyvitamin D3; FIG. 1
T1 construct: Full-length recombinant rat receptor was expressed in E. coli BL21(DE3) Codon Plus RIL cells; histidine tag (C); made in house; host or cells: E. coli BL21(DE3) Codon Plus RIL
T1 sequence (P13053 1-423): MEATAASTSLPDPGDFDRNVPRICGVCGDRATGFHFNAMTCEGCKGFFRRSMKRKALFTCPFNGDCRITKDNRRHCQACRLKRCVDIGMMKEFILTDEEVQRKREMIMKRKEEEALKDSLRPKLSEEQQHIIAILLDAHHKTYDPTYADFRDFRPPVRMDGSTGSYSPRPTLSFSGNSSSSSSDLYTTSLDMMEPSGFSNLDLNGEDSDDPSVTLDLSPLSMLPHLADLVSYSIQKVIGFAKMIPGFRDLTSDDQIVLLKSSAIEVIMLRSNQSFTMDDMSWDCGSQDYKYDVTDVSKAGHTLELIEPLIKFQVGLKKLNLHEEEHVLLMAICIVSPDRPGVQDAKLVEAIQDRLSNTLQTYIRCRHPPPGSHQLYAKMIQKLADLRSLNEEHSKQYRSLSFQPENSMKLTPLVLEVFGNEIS
Description: Full-length recombinant rat receptor was expressed in E. coli BL21(DE3) Codon Plus RIL cells and purified to homogeneity using two different column chromatography systems. The first system was a nickel affinity resin that utilizes the C-terminal histidine tag on this protein. The protein that was eluted from this resin was further purified using ion exchange chromatography (S-Sepharose Fast Flow). Aliquots of the purified protein were quick frozen in liquid nitrogen and stored at −80° C. until use. For use in binding assays, the protein was diluted in TEDK50 (50 mM Tris, 1.5 mM EDTA, pH7.4, 5 mM DTT, 150 mM KCl) with 0.1% Chaps detergent. The receptor protein and ligand concentration was optimized such that no more than 20% of the added radiolabeled ligand was bound to the receptor.
Radiolabeled ligand (^3H-1,25(OH)2D3, ˜159 Ci/mmole) was added in ethanol at a final concentration of 1 nM.
Radiolabeled and unlabeled ligands were added to 100 mcl of the diluted protein at a final ethanol concentration of <10%, mixed and incubated overnight on ice to reach binding equilibrium. The following day, 100 mcl of hydroxylapatite slurry (50%) was added to each tube and mixed at 10-minute intervals for 30 minutes. […] Total binding was determined from the tubes containing only radiolabeled ligand.

[3] = Intestinal calcium transport (everted gut sac method); parameters: species or system Sprague-Dawley rats; details: in vivo, rats, ip doses; FIG. 3
Description: Male, weanling Sprague-Dawley rats were placed on Diet 11 (0.47% Ca) diet+AEK for one week followed by Diet 11 (0.02% Ca)+AEK for 3 weeks. The rats were then switched to a diet containing 0.47% Ca for one week followed by two weeks on a diet containing 0.02% Ca. Dose administration began during the last week on 0.02% calcium diet. Four consecutive ip doses were given approximately 24 hours apart. Twenty-four hours after the last dose, blood was collected from the severed neck and the concentration of serum calcium determined as a measure of bone calcium mobilization. The first 10 cm of the intestine was also collected for intestinal calcium transport analysis using the everted gut sac method. The everted gut sac assay was carried out as previously described by Martin and Deluca, Am. J. Physiol. 216, 1351 (1969); (DeLuca et al., U.S. Pat. No. 4,188,345), which are incorporated by reference as if fully set forth herein.
Both control and test articles are administered by intraperitoneal injection in 100 microliters for 4-7 consecutive days spaced approximately 24 hours apart.

[4] = system: HL-60 cells; assay: HL-60 differentiation (nitro blue tetrazolium reduction); format: cell-based, human; details: compared to 1α,25-dihydroxyvitamin D3; FIG. 4
Description: The study drugs were dissolved in ethanol and the concentrations determined using UV spectrophotometry. Serial dilutions were prepared so that a range of drug concentrations could be tested without changing the final concentration of ethanol (<0.2%) present in the cell cultures.
Human promyelocytic leukemia (HL60) cells were grown in RPMI-1640 medium containing 10% fetal bovine serum. The cells were incubated at 37° C. in the presence of 5% CO2.
HL60 cells were plated at 1.2×10^5 cells/ml. Eighteen hours after plating, cells in duplicate were treated with drug. Four days later, the cells were harvested and a nitro blue tetrazolium reduction assay was performed (Collins et al., 1979; J. Exp. Med. 149:969-974). The percentage of differentiated cells was determined by counting a total of 200 cells and recording the number that contained intracellular black-blue formazan deposits. Verification of differentiation to monocytic cells was determined by measuring phagocytic activity (data not shown).

[5] = system: 24-hydyroxylase (24Ohase) gene promoter upstream of a luciferase reporter gene in ROS 17/2.8 (bone) cells; assay: In vitro transcription assay (luciferase reporter); format: cell-based; details: Ros17/2.8 (bone) cells, compared to 1α,25-dihydroxyvitamin D3; FIG. 5
Description: Transcription activity was measured in ROS 17/2.8 (bone) cells that were stably transfected with a 24-hydyroxylase (24Ohase) gene promoter upstream of a luciferase reporter gene (Arbour et al., 1998). Cells were given a range of doses. Sixteen hours after dosing the cells were harvested and luciferase activities were measured using a luminometer. (RLU=relative luciferase units)

C=C1[C@H](O)CC(=C/C=C2\CCC[C@@H]3[C@@H](CCCCC(C)C)CC[C@@H]23)C[C@H]1O [SX-99, 2-methylene-1α-hydroxy-18,19,21-trinorvitamin D3]
bone calcium mobilization activity [1]: significant bone calcium mobilization activity; also recorded: good ability to mobilize calcium from bone
binding to the recombinant vitamin D receptor [2]: considerably less active; also recorded: relatively high binding
intestinal calcium transport activity [3]: potent calcium transport activity; also recorded: significant intestinal calcium transport activity
inducing differentiation of HL-60 cells [4]: slightly less active; also recorded: relatively high cell differentiation activity
stimulating transcription of a reporter gene [5]: less active
